Read-outs that look alike come from different tables or passages of the source.
Columns and labels:
Assay type in all cases: cell-based
OR8/OR7 = OR8/OR7 (Anopheles gambiae, UniProt Q7PUT5+Q7QCC7); assay: Ca2+-imaging of stable HEK293T cell line OR8/OR7; conditions: for inhibition at 4 µM: HEK-293T, read-out: Percent Inhibition OR8 OR7; for IC50: Table B, read-out: IC50 OR8
Method: (§1) Full-length cDNAs for mosquito (Anopheles gambiae) odorant receptor (OR1, OR2, OR7, OR8, OR28), and fly (Drosophila melanogaster) odorant receptor (Or47a, Or83b), mouse TRP channel (TRPM8), and mouse serotonin receptor (5HT3) were obtained and subcloned into mammalian expression vectors. The following mammalian expression vectors were used:
Stable cell lines OR1/OR7, OR2/OR7, OR8/OR7, OR10/OR7, OR28/OR7 and TRPM8 were generated from HEK293T cells. HEK293T-based cell lines were cultured in DMEM supplemented with these additional antibiotics: 6 μg/mL blasticidin and 1 μg/mL puromycin, with the exception of the TRPM8 cell lines, which was cultured in DMEM supplemented with 1 μg/mL puromycin.
Cells were trypsinized and split into 35 mm dishes one day before transfection. Confluent cells (60-70%) in 35 mm dishes were transfected with 1 μg of insect OR(X) plasmids in pME18s-bla and 1 μg of OR7-pME18s-puro using lipofectamine 2000. For Anopheles odorant receptors, two plasmids were co-transfected into HEK cells: the ligand-specific receptor (OR1, OR2, OR8, OR28) and the corresponding olfactory co-receptor: OR7. Cell lines containing TRPM8 were transfected with single plasmid.
(§2) Stable cell lines were cultured in 10 cm dishes, and confluent cells (70-80%) were trypsinized. 10,000 cells/20 μL were transferred into each well of 384-well plates coated with poly-D-lysine, and cultured for 2 days. For Flip-In T-Rex cells (cell lines expressing Or47a/Or83b and 5HT3), 5 μL of tetracycline (5 μg/mL) were added 1 day before the assay. 20 μL of Ca-4 dye was loaded into each well for 1.5 hr at room temperature in the dark, and the dye-loaded plates were subjected to Ca^2+-imaging using a Hamamatsu FDSS6000 real time fluorescence plate reader. Odorant solutions (9× final concentration) were prepared by dissolving 1M stock solutions into Hank's Buffered Salt Solution (HBSS), and 30 μL of odor solution was transferred to each well in 384-well plates.
(§3) Compounds ([…] in DMSO) were stored in 384-well plates, and last two columns (32 wells total) contained only DMSO. 200 nL of small compounds were transferred into the odorant plates before the assay using the Perkin-Elmer Janus workstation. The odorant plates were spun down to remove air bubbles, and placed on the FDSS6000 plate loader, and 5 μL of odorant solution was applied to the cell plate on the FDSS6000. Ca^2+ increase was monitored with fluorescence at 525 nm by excitation at 485 nm.

mOREG = molecular target: T1, mOREG (Mus musculus, UniProt Q920P2); assay: Ca2+-imaging, control receptor mOREG; conditions: read-out: Percent Inhibition mOREG
T1 sequence (Q920P2 1-313): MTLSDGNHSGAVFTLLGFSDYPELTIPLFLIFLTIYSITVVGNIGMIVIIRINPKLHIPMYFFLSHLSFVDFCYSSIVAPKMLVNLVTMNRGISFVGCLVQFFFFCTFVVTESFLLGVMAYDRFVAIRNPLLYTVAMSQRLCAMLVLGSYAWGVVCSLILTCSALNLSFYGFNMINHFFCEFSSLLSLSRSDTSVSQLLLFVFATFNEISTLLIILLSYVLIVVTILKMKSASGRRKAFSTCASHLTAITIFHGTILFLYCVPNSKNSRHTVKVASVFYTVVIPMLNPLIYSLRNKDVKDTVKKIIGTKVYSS
Method: as §2, with “plates. The last two columns of the plate (32 wells total) were used as control wells as follows: • negative control with HBSS buffer (16 wells) • positive control with ligands (16 wells).” for “plates.”
as §3

[1] = molecular target: T2, serotonin receptor (5HT3) (Mus musculus, UniProt P23979); assay: Ca2+-imaging of stable Flip-In T-Rex cell line 5HT3; conditions: for inhibition at 4 µM: read-out: Percent Inhibition 5HT3; for IC50: Table B, read-out: IC50 5HT3
T2 construct: Full-length cDNAs for mosquito (Anopheles gambiae) odorant receptor; expressed in transfected cells
T2 sequence (P23979 24-489): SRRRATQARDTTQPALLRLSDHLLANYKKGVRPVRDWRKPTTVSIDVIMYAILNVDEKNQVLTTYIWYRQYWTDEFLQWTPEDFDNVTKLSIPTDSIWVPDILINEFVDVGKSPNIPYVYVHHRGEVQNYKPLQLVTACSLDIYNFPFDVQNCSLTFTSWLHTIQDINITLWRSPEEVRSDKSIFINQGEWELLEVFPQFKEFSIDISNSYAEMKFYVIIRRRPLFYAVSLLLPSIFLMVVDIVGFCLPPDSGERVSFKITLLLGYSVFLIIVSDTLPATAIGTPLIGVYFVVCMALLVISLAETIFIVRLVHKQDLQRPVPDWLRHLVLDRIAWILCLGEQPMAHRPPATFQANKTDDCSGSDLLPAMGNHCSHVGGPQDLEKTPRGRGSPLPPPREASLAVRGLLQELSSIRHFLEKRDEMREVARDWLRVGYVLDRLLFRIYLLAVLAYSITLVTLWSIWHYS
Method: as §1
Stable cell lines Or47a/Or83b and 5HT3 were generated from Flip-In T-Rex cells. Flip-In T-Rex-based cell lines were cultured in DMEM supplemented with these additional antibiotics: 6 μg/mL blasticidin and 100 μg/mL hygromycin.
Cells were trypsinized and split into 35 mm dishes 1 day before transfection. Confluent cells (60-70%) in 35 mm dishes were co-transfected with 1 μg of Or47a/Or83b plasmid in pcDNA5/FRT/TO/IRES plus the pOG44 plasmid or 1 μg of 5HT3 plasmid in pcDNA5/FRT/TO plus the pOG44 plasmid using lipofectamine 2000. Co-transfection of pOG44 and pcDNA5/FRT/TO/IRES or pcDNA5/FRT/TO allows expression of Flp recombinase and integration of the pcDNA5 plasmid into the genome via the FRT site. After one day of incubation, the transfected cells were transferred into 10 cm dishes with DMEM containing antibiotics: 20 μg/mL of hygromycin and 6 μg/mL of blasticidin. The concentration of Hygromycin was increased to 100 μg/mL when the population of cells became 30-40% confluent. The cells were cultured by changing medium every two days until cell clumps appeared. The clumps were picked and transferred into 96 well plates with DMEM containing 100 μg/mL of Hygromycin and 6 μg/mL of blasticidin. The cells were grown and transferred to 24 well plates, and ligand-evoked calcium increases were tested using the Hamamatsu FDSS6000 real time fluorescence plate reader.
as §2, §3

OR8/OR7, sequence (Q7QCC7 whole entry): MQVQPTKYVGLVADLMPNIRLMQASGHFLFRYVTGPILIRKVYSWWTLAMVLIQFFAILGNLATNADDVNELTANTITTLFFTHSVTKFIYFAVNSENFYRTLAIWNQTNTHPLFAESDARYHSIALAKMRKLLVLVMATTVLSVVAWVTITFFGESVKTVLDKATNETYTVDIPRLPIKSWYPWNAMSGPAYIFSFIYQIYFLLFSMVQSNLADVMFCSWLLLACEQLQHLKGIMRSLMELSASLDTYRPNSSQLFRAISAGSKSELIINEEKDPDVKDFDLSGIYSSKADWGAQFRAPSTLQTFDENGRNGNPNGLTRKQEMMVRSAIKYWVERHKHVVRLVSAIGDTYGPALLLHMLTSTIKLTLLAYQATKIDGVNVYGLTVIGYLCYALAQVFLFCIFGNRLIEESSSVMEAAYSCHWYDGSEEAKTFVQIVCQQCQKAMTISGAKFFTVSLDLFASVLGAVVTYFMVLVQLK
OR8/OR7, sequence (Q7PUT5 entry or part of it): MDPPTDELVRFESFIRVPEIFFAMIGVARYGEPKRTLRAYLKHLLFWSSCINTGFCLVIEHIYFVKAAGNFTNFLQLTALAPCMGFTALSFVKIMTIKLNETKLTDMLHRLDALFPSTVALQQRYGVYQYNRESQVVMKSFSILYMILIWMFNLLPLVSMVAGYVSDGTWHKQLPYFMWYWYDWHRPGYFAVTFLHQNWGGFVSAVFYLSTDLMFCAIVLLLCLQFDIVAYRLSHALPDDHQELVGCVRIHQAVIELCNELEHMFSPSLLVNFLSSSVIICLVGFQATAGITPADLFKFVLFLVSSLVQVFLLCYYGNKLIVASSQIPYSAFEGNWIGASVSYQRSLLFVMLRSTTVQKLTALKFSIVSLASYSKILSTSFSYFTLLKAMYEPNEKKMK

| SMILES | inhibition at 4 µM (OR8/OR7; compound applied at 4 μM) [%] | inhibition at 4 µM (mOREG; compound applied at 4 μM) [%] | inhibition at 4 µM ([1]; compound applied at 4 μM) [%] | IC50 (OR8/OR7) [µM] | inhibition at 4 µM (OR8/OR7) [%] | inhibition at 4 µM (mOREG) [%] | inhibition at 4 µM [1] [%] | IC50 [1] [µM] |
| --- | --- | --- | --- | --- | --- | --- | --- | --- |
| Cc1c(C(=O)NCc2ccco2)cnn1-c1ccccc1 [RU-0047765] | < 25 | < 25 | < 25 | – | – | – | – | – |
| COCCCN(Cc1c(-c2ccccc2)noc1N1CCC(C)CC1)C(=O)c1ccccc1F [RU-0036876] | 51 to 74 | 26 to 50 | 26 to 50 | > 1 | – | – | – | – |
| O=C(c1ccco1)N(Cc1nccn1Cc1c(F)cccc1Cl)C1CC1 [RU-0048046] | < 25 | < 25 | < 25 | – | – | – | – | – |
| C=CCOc1cccc(C(=O)N2CCCC(C(=O)c3ccccc3OC)C2)c1 (centres unmarked) [RU-0029409] | 26 to 50 | < 25 | < 25 | – | – | – | – | – |
| CCN(CC)C(=O)Oc1ccc2c(ccn2Cc2ccc(Cl)cc2)c1NC(=O)C1CC1 [RU-0075475] | – | – | – | – | < 25 | < 25 | < 25 | – |
| COCCCN(Cc1c(-c2ccccc2)noc1N1CCCC1)C(=O)c1ccc(F)cc1 [RU-0037386] | 51 to 74 | 26 to 50 | 26 to 50 | > 1 | – | – | – | – |
| CCN(C)c1onc(-c2ccccc2)c1CN(CCCOC)C(=O)c1ccco1 [RU-0051926] | < 25 | < 25 | 51 to 74 | – | – | – | – | 0.1 to 1 |
| O=C(c1ccco1)N(Cc1nccn1Cc1ccccc1Cl)CC1CC1 [RU-0047281] | > 75 | 26 to 50 | > 75 | > 1 | – | – | – | 0.1 to 1 |
| CC(C)N(Cc1nccn1Cc1c(F)cccc1Cl)C(=O)c1ccc(Cl)cc1 [RU-0055364] | 26 to 50 | 26 to 50 | < 25 | – | – | – | – | – |
| CN(C)c1ccc(C(=O)N2CCOC(COCc3ccccc3F)C2)cc1 (centres unmarked) [RU-0050325] | 26 to 50 | < 25 | < 25 | – | – | – | – | – |
| O=C(Cc1cccc(F)c1)N1CCOC(COCc2c(Cl)cccc2Cl)C1 (centres unmarked) [RU-0050398] | < 25 | < 25 | < 25 | – | – | – | – | – |
| COCCCN(Cc1c(-c2ccccc2)noc1N(C)C(C)C)C(=O)c1ccccc1OC [RU-0037003] | 26 to 50 | 26 to 50 | 26 to 50 | – | – | – | – | – |
| CC(C)CN(Cc1nccn1Cc1ccc(Cl)cc1Cl)C(=O)c1ccccc1F [RU-0055322] | < 25 | 26 to 50 | < 25 | – | – | – | – | – |
| Cc1ccccc1C(=O)N[C@@H]1CCCCC1NC(=O)C1CCCN(S(=O)(=O)c2cc(Cl)ccc2Cl)C1 (some centres unmarked) [RU-0045691] | < 25 | 26 to 50 | < 25 | – | – | – | – | – |

— patent US20130324522A1, “INSECT ODORANT RECEPTOR ANTAGONISTS” (THE ROCKEFELLER UNIVERSITY, priority 2010, published 2013)
